Reference: PMC4502315, “High Potency of a Novel Resveratrol Derivative, 3,3′,4,4′-Tetrahydroxy-trans-stilbene, against Ovarian Cancer Is Associated with an Oxidative Stress-Mediated Imbalance between DNA Damage Accumulation and Repair” (Oxidative Medicine and Cellular Longevity, 2015)

Assay: LDH release assay, HPMCs
Type: cell-based, human
Conditions: human, percentage of control cells

Oc1ccc(/C=C/c2ccc(O)c(O)c2)cc1O [3,3′,4,4′-THS, 3,3′,4,4′-tetrahydroxy-trans-stilbene]
viability at 24 h, 10 µM (10 μM): 101 ± 2%
viability at 24 h, 50 µM (50 μM): 100 ± 4%
viability at 24 h, 100 µM (100 μM): 102 ± 2%
